From paper PMC5218480 (PLoS ONE, 2017) come the findings set out here.

In the experiment the test system is MV-4-11 cells. The experiment in a line: Gene expression microarray analysis (Affymetrix PrimeView) and GSEA. The note with it: MV-4-11 cells, 48 hours. In kind it is cell-based, human. Also on record: RFU PODN (11730768_x_at) / Fold change /veh PODN (11730768_x_at) / RFU LINC00158 (11744669_a_at) / Fold change /veh LINC00158 (11744669_a_at) / RFU DUSP10 (11751237_a_at) / Fold change /veh DUSP10 (11751237_a_at) / RFU ID3 (11757404_x_at) / Fold change /veh ID3 (11757404_x_at) / RFU PLEKHG5 (11737974_s_at) / Fold change /veh PLEKHG5 (11737974_s_at) / RFU LRRC4B (11730491_at) / Fold change /veh LRRC4B (11730491_at) / RFU GIMAP4 (11747438_a_at) / Fold change /veh GIMAP4 (11747438_a_at) / RFU KRT8 (11758183_x_at) / Fold change /veh KRT8 (11758183_x_at) / RFU CNN1 (11734310_a_at) / Fold change /veh CNN1 (11734310_a_at) / RFU VPS37D (11726825_at) / Fold change /veh VPS37D (11726825_at) / RFU C10orf10 (11716522_x_at) / Fold change /veh C10orf10 (11716522_x_at) / RFU KIR2DL2 /// KIR2DL4 /// KIR2DL5A /// KIR2DL5B /// KIR2DS1 /// KIR2DS2 /// KIR2DS3 /// KIR2DS4 /// KIR3DL3 /// KIR3DL3 /// KIR3DS1 (11738374_at) / Fold change /veh KIR2DL2 /// KIR2DL4 /// KIR2DL5A /// KIR2DL5B /// KIR2DS1 /// KIR2DS2 /// KIR2DS3 /// KIR2DS4 /// KIR3DL3 /// KIR3DL3 /// KIR3DS1 (11738374_at) / RFU C1QL1 (11718748_at) / Fold change /veh C1QL1 (11718748_at) / RFU TMPRSS4 (11747572_a_at) / Fold change /veh TMPRSS4 (11747572_a_at) / RFU HAMP (11756126_x_at) / Fold change /veh HAMP (11756126_x_at) / RFU RNFT2 (11725882_a_at) / Fold change /veh RNFT2 (11725882_a_at) / RFU NR4A2 (11747474_a_at) / Fold change /veh NR4A2 (11747474_a_at) / RFU ABCC12 (11746883_a_at) / Fold change /veh ABCC12 (11746883_a_at) / RFU TMEM136 (11760407_x_at) / Fold change /veh TMEM136 (11760407_x_at) / RFU CLDN22 /// WWC2 (11732394_at) / Fold change /veh CLDN22 /// WWC2 (11732394_at) / RFU HLA-DPB1 (11760878_x_at) / Fold change /veh HLA-DPB1 (11760878_x_at) / RFU SPINT1 (11716480_a_at) / Fold change /veh SPINT1 (11716480_a_at) / RFU GAP43 (11754022_s_at) / Fold change /veh GAP43 (11754022_s_at) / RFU A4GNT (11735810_at) / Fold change /veh A4GNT (11735810_at) / RFU PRB3 (11715151_x_at) / Fold change /veh PRB3 (11715151_x_at) / RFU TUBB4B (11761932_at) / Fold change /veh TUBB4B (11761932_at) / RFU CAPN14 (11732068_a_at) / Fold change /veh CAPN14 (11732068_a_at) / RFU TMCC2 (11721928_a_at) / Fold change /veh TMCC2 (11721928_a_at) / RFU IRGQ (11745062_a_at) / Fold change /veh IRGQ (11745062_a_at) / RFU FAM174B (11720279_a_at) / Fold change /veh FAM174B (11720279_a_at) / RFU TMPRSS4 (11748680_a_at) / Fold change /veh TMPRSS4 (11748680_a_at) / RFU FAM212B (11763350_a_at) / Fold change /veh FAM212B (11763350_a_at) / RFU PLEKHG5 (11743358_a_at) / Fold change /veh PLEKHG5 (11743358_a_at) / RFU ZSCAN30 (11745921_a_at) / Fold change /veh ZSCAN30 (11745921_a_at) / RFU CMKLR1 (11741424_a_at) / Fold change /veh CMKLR1 (11741424_a_at) / RFU LOC101060620 /// MAPK8IP1 (11723275_at) / Fold change /veh LOC101060620 /// MAPK8IP1 (11723275_at) / RFU SPTSSB (11747773_x_at) / Fold change /veh SPTSSB (11747773_x_at) / RFU PRSS12 (11739890_at) / Fold change /veh PRSS12 (11739890_at) / RFU BIN1 (11741810_x_at) / Fold change /veh BIN1 (11741810_x_at) / RFU WNT11 (11732464_a_at) / Fold change /veh WNT11 (11732464_a_at) / RFU C10orf10 (11716521_a_at) / Fold change /veh C10orf10 (11716521_a_at) / RFU C5orf56 (11738089_at) / Fold change /veh C5orf56 (11738089_at) / RFU CYB561 (11721691_x_at) / Fold change /veh CYB561 (11721691_x_at) / RFU ANKRD19P (11752326_a_at) / Fold change /veh ANKRD19P (11752326_a_at) / RFU OR2T12 /// OR2T33 /// OR2T8 (11738714_s_at) / Fold change /veh OR2T12 /// OR2T33 /// OR2T8 (11738714_s_at) / RFU VCAN (11748164_a_at) / Fold change /veh VCAN (11748164_a_at) / RFU JSRP1 (11732532_at) / Fold change /veh JSRP1 (11732532_at) / RFU KRTAP10-11 (11738290_x_at) / Fold change /veh KRTAP10-11 (11738290_x_at) / RFU MYO3A (11730013_a_at) / Fold change /veh MYO3A (11730013_a_at) / RFU EBF3 (11725865_a_at) / Fold change /veh EBF3 (11725865_a_at) / RFU CAMK2N1 (11719241_x_at) / Fold change /veh CAMK2N1 (11719241_x_at) / RFU C5orf56 (11738088_a_at) / Fold change /veh C5orf56 (11738088_a_at) / RFU OLFML3 (11715873_a_at) / Fold change /veh OLFML3 (11715873_a_at) / RFU LOC100653217 /// NTM (11731650_a_at) / Fold change /veh LOC100653217 /// NTM (11731650_a_at) / RFU MAPK11 (11762145_a_at) / Fold change /veh MAPK11 (11762145_a_at) / RFU FIZ1 (11724087_x_at) / Fold change /veh FIZ1 (11724087_x_at) / RFU OASL (11726364_x_at) / Fold change /veh OASL (11726364_x_at) / RFU SOX15 (11748057_x_at) / Fold change /veh SOX15 (11748057_x_at) / RFU CD79A (11719716_a_at) / Fold change /veh CD79A (11719716_a_at) / RFU HIST1H1D (11736915_at) / Fold change /veh HIST1H1D (11736915_at) / RFU CASKIN2 (11723855_a_at) / Fold change /veh CASKIN2 (11723855_a_at) / RFU LOC730098 (11760151_x_at) / Fold change /veh LOC730098 (11760151_x_at) / RFU OR4N2 (11742367_at) / Fold change /veh OR4N2 (11742367_at) / RFU PRRT2 (11749266_a_at) / Fold change /veh PRRT2 (11749266_a_at) / RFU SNX32 (11753110_a_at) / Fold change /veh SNX32 (11753110_a_at) / RFU CDHR5 (11726645_a_at) / Fold change /veh CDHR5 (11726645_a_at) / RFU RCAN1 (11760418_a_at) / Fold change /veh RCAN1 (11760418_a_at) / RFU FAM167A (11723789_a_at) / Fold change /veh FAM167A (11723789_a_at) / RFU FAM26E (11764081_at) / Fold change /veh FAM26E (11764081_at) / RFU ISYNA1 (11749810_s_at) / Fold change /veh ISYNA1 (11749810_s_at) / RFU ACY1 (11761880_at) / Fold change /veh ACY1 (11761880_at) / RFU 11764098_at / Fold change /veh 11764098_at / RFU SAMD14 (11745864_x_at) / Fold change /veh SAMD14 (11745864_x_at) / RFU NPB (11741838_a_at) / Fold change /veh NPB (11741838_a_at) / RFU TMPRSS6 (11731388_a_at) / Fold change /veh TMPRSS6 (11731388_a_at) / RFU KRTAP10-2 (11738614_at) / Fold change /veh KRTAP10-2 (11738614_at) / RFU ARHGAP8 /// PRR5-ARHGAP8 (11727945_x_at) / Fold change /veh ARHGAP8 /// PRR5-ARHGAP8 (11727945_x_at) / RFU KRTAP5-7 /// NADSYN1 (11734609_at) / Fold change /veh KRTAP5-7 /// NADSYN1 (11734609_at) / RFU RASL12 (11751679_a_at) / Fold change /veh RASL12 (11751679_a_at) / RFU CDKN2B (11736163_a_at) / Fold change /veh CDKN2B (11736163_a_at) / RFU PRF1 (11729649_at) / Fold change /veh PRF1 (11729649_at) / RFU, ZNF638 /// ZNF638-IT1 / Fold change vs veh, ZNF638 /// ZNF638-IT1 / RFU, PANK3 / Fold change vs veh, PANK3 / RFU, SH3YL1 / Fold change vs veh, SH3YL1 / RFU, ZEB2 / Fold change vs veh, ZEB2 / RFU, NRIP1 / Fold change vs veh, NRIP1 / RFU, PTTG1IP / Fold change vs veh, PTTG1IP / RFU, CAPN2 / Fold change vs veh, CAPN2 / RFU, MED14 / Fold change vs veh, MED14 / RFU, SNORA58 / Fold change vs veh, SNORA58 / RFU, C1orf63 / Fold change vs veh, C1orf63 / RFU, LRRFIP1 / Fold change vs veh, LRRFIP1 / RFU, NDUFAF7 / Fold change vs veh, NDUFAF7 / RFU, SLC12A2 / Fold change vs veh, SLC12A2 / RFU, IBTK / Fold change vs veh, IBTK / RFU, ESF1 / Fold change vs veh, ESF1 / Fold change vs veh, TMEM50B / RFU, TAOK1 / Fold change vs veh, TAOK1 / RFU, ACBD3 / Fold change vs veh, ACBD3 / RFU, TMA16 / Fold change vs veh, TMA16 / RFU, RWDD3 / Fold change vs veh, RWDD3 / RFU, BCAT1 / Fold change vs veh, BCAT1 / RFU, EDEM3 / Fold change vs veh, EDEM3 / RFU, TMEM33 / Fold change vs veh, TMEM33 / RFU, WDR75 / Fold change vs veh, WDR75 / RFU, AHCTF1 / Fold change vs veh, AHCTF1 / RFU, TFRC / Fold change vs veh, TFRC / RFU, ZDHHC17 / Fold change vs veh, ZDHHC17 / RFU, NOM1 / Fold change vs veh, NOM1 / RFU, ARL8B / Fold change vs veh, ARL8B / RFU, ZBTB11 / Fold change vs veh, ZBTB11 / RFU, TAMM41 / Fold change vs veh, TAMM41 / RFU, KIAA1704 /// LOC100996395 / Fold change vs veh, KIAA1704 /// LOC100996395 / RFU, ING1 / Fold change vs veh, ING1 / RFU, TRMT61B / Fold change vs veh, TRMT61B / RFU, FUBP3 / Fold change vs veh, FUBP3 / RFU, TP53 / Fold change vs veh, TP53 / RFU, TNKS2 / Fold change vs veh, TNKS2 / RFU, ZFP14 / Fold change vs veh, ZFP14 / RFU, ACTR2 / Fold change vs veh, ACTR2 / RFU, PPP3R1 / Fold change vs veh, PPP3R1 / RFU, PIK3R1 / Fold change vs veh, PIK3R1 / RFU, HNRNPA1 / Fold change vs veh, HNRNPA1 / RFU, RNF170 / Fold change vs veh, RNF170 / RFU, ZNF28 / Fold change vs veh, ZNF28 / RFU, RNGTT / Fold change vs veh, RNGTT / RFU, OGT / Fold change vs veh, OGT / RFU, BRD1 / Fold change vs veh, BRD1 / RFU, MARS / Fold change vs veh, MARS / RFU, ZNF655 / Fold change vs veh, ZNF655 / RFU, FAHD1 / Fold change vs veh, FAHD1 / RFU, BDP1 / Fold change vs veh, BDP1 / RFU, LRRCC1 / Fold change vs veh, LRRCC1 / RFU, ARID1A / Fold change vs veh, ARID1A / RFU, ZNF146 / Fold change vs veh, ZNF146 / RFU, ZNF330 / Fold change vs veh, ZNF330 / RFU, GPN3 / Fold change vs veh, GPN3 / RFU, C9orf123 / Fold change vs veh, C9orf123 / RFU, N4BP2L2 / Fold change vs veh, N4BP2L2 / RFU, ARFIP1 / Fold change vs veh, ARFIP1 / RFU, FAM179B / Fold change vs veh, FAM179B / RFU, BCL10 / Fold change vs veh, BCL10 / RFU, UHRF1BP1L / Fold change vs veh, UHRF1BP1L / RFU, BET1 / Fold change vs veh, BET1 / RFU, CNOT2 / Fold change vs veh, CNOT2 / RFU, ZNF268 / Fold change vs veh, ZNF268 / Fold change vs veh, ZNF507 / RFU, DGCR2 / Fold change vs veh, DGCR2 / RFU, WDSUB1 / Fold change vs veh, WDSUB1 / Fold change vs veh, HSP90B1 /// MIR3652 / RFU, ADSS / Fold change vs veh, ADSS / RFU, GK / Fold change vs veh, GK / RFU, ZNF148 / Fold change vs veh, ZNF148 / RFU, TAF9 / Fold change vs veh, TAF9 / RFU, SLC1A5 / Fold change vs veh, SLC1A5 / RFU, SLMO2 / Fold change vs veh, SLMO2 / RFU, ABCC4 / Fold change vs veh, ABCC4 / RFU, LOC101060439 /// RAP1B / Fold change vs veh, LOC101060439 /// RAP1B / RFU, RFX7 / Fold change vs veh, RFX7 / RFU, GTPBP10 / Fold change vs veh, GTPBP10 / RFU, CNEP1R1 / Fold change vs veh, CNEP1R1 / RFU, BIVM-ERCC5 /// ERCC5 / Fold change vs veh, BIVM-ERCC5 /// ERCC5 / RFU, ILF3 / Fold change vs veh, ILF3 / RFU 11762660_at / Fold change /veh 11762660_at / RFU VCAN (11757783_s_at) / Fold change /veh VCAN (11757783_s_at) / RFU DDX43 (11728927_at) / Fold change /veh DDX43 (11728927_at) / RFU KRT8 (11758188_x_at) / Fold change /veh KRT8 (11758188_x_at) / RFU NKD1 (11759106_at) / Fold change /veh NKD1 (11759106_at) / RFU SRD5A1 (11742802_a_at) / Fold change /veh SRD5A1 (11742802_a_at) / RFU TPSAB1 /// TPSB2 (11721975_s_at) / Fold change /veh TPSAB1 /// TPSB2 (11721975_s_at) / RFU GSTM3 (11746129_a_at) / Fold change /veh GSTM3 (11746129_a_at) / RFU IL23R (11737362_x_at) / Fold change /veh IL23R (11737362_x_at) / RFU TMEM51 (11727254_a_at) / Fold change /veh TMEM51 (11727254_a_at) / RFU PIWIL2 (11732686_x_at) / Fold change /veh PIWIL2 (11732686_x_at) / RFU ORM1 (11744905_x_at) / Fold change /veh ORM1 (11744905_x_at) / RFU CCDC152 (11743942_at) / Fold change /veh CCDC152 (11743942_at) / RFU ECM1 (11717891_a_at) / Fold change /veh ECM1 (11717891_a_at) / RFU IL23R (11748794_a_at) / Fold change /veh IL23R (11748794_a_at) / RFU TNFAIP8L3 (11732012_x_at) / Fold change /veh TNFAIP8L3 (11732012_x_at) / RFU MBOAT4 (11741988_at) / Fold change /veh MBOAT4 (11741988_at) / RFU 11764193_at / Fold change /veh 11764193_at / RFU TMEM53 (11763286_at) / Fold change /veh TMEM53 (11763286_at) / RFU MAGEB2 (11727129_at) / Fold change /veh MAGEB2 (11727129_at) / RFU TMEM200A (11744735_a_at) / Fold change /veh TMEM200A (11744735_a_at) / RFU CCDC152 (11751479_a_at) / Fold change /veh CCDC152 (11751479_a_at) / RFU FAM211A (11726209_a_at) / Fold change /veh FAM211A (11726209_a_at) / RFU RGS16 (11746705_a_at) / Fold change /veh RGS16 (11746705_a_at) / RFU VCAN (11755009_s_at) / Fold change /veh VCAN (11755009_s_at) / RFU RHOB (11743442_s_at) / Fold change /veh RHOB (11743442_s_at) / RFU RGS16 (11720943_a_at) / Fold change /veh RGS16 (11720943_a_at) / RFU RGS16 (11720944_at) / Fold change /veh RGS16 (11720944_at) / RFU, VPS4B / Fold change vs veh, VPS4B / RFU, CREB1 / Fold change vs veh, CREB1 / RFU, DNAJC13 / Fold change vs veh, DNAJC13 / RFU, GNAQ / Fold change vs veh, GNAQ / RFU, CDK5R1 / Fold change vs veh, CDK5R1 / RFU, ZRANB3 / Fold change vs veh, ZRANB3 / RFU, CUL4A / Fold change vs veh, CUL4A / RFU, CCNY / Fold change vs veh, CCNY / RFU, UFL1 / Fold change vs veh, UFL1 / RFU, COG3 / Fold change vs veh, COG3 / RFU, DIAPH2 / Fold change vs veh, DIAPH2 / RFU, SKA2 / Fold change vs veh, SKA2 / RFU, AFF3 / Fold change vs veh, AFF3 / RFU, LMF1 / Fold change vs veh, LMF1 / RFU, IPO11 / Fold change vs veh, IPO11 / RFU, DFFB / Fold change vs veh, DFFB / RFU, FOXP1 / Fold change vs veh, FOXP1 / RFU, CARD8 / Fold change vs veh, CARD8 / RFU, STRN3 / Fold change vs veh, STRN3 / RFU, ADK / Fold change vs veh, ADK / RFU, RASSF2 / Fold change vs veh, RASSF2 / RFU, WIPF1 / Fold change vs veh, WIPF1 / RFU, LARP1B / Fold change vs veh, LARP1B / RFU, RASA1 / Fold change vs veh, RASA1 / RFU, RB1 / Fold change vs veh, RB1 / RFU, PPFIA1 / Fold change vs veh, PPFIA1 / RFU, MAT2A / Fold change vs veh, MAT2A / RFU, CCT5 / Fold change vs veh, CCT5 / RFU, WDR92 / Fold change vs veh, WDR92 / RFU, CUX1 / Fold change vs veh, CUX1 / RFU, TTC7A / Fold change vs veh, TTC7A / RFU, TMEM135 / Fold change vs veh, TMEM135 / RFU, DEPTOR / Fold change vs veh, DEPTOR / RFU, CPM / Fold change vs veh, CPM / RFU, DNAJB6 / Fold change vs veh, DNAJB6 / RFU, CACNA2D3 / Fold change vs veh, CACNA2D3 / RFU, DTX4 / Fold change vs veh, DTX4 / RFU, TFCP2 / Fold change vs veh, TFCP2 / RFU, GMCL1 /// GMCL1P1 / Fold change vs veh, GMCL1 /// GMCL1P1 / RFU, AEBP2 / Fold change vs veh, AEBP2 / RFU, SNHG1 /// SNORD22 /// SNORD25 /// SNORD26 /// SNORD27 /// SNORD28 /// SNORD29 /// SNORD31 / Fold change vs veh, SNHG1 /// SNORD22 /// SNORD25 /// SNORD26 /// SNORD27 /// SNORD28 /// SNORD29 /// SNORD31 / Fold change (Aza/veh), C12orf56 (ProbeSet 11735607_a_at) / Fold change (ACY-1035/veh), C12orf56 (ProbeSet 11735607_a_at) / Fold change (Aza/veh), FGFR1OP (ProbeSet 11751329_s_at) / Fold change (ACY-1035/veh), FGFR1OP (ProbeSet 11751329_s_at) / Fold change (Aza/veh), VPS36 (ProbeSet 11739960_a_at) / Fold change (ACY-1035/veh), VPS36 (ProbeSet 11739960_a_at) / RFU SYPL1 (11715823_x_at) / Fold change /veh SYPL1 (11715823_x_at) / RFU IGFBP7 (11715501_s_at) / Fold change /veh IGFBP7 (11715501_s_at) / RFU REEP3 (11722064_at) / Fold change /veh REEP3 (11722064_at) / RFU IGLL1 (11728026_x_at) / Fold change /veh IGLL1 (11728026_x_at): dose or concentration left out as unconfirmed.

For the compound `Nc1ncn([C@@H]2O[C@H](CO)[C@@H](O)[C@H]2O)c(=O)n1` [azacitidine], the “Fold change /veh JSRP1 (11732532_at)” value is 1.00.
